These results are taken from patent US10231952B2, “Use of arginine vasopressin receptor antagonists for the treatment of prostate cancer” (UNIVERSITY OF MIAMI, priority 2014, dated 2019).

The test system of test [1] is 22Rv1, CWR-R1, PC3 cells. Nature of the test: AVP stimulation of castration resistant prostate cancer cell proliferation (FIG. 9). The class given is cell-based, human. The settings on record: 1 nM AVP; six days. The protocol: (§1) FIG. 9A-9D. […] (A) 22Rv1, (B) CWR-R1, (C) PC3, or (D) RWPE-1 cells were plated at 10,000 cells/well in 24 well dishes and then treated with vehicle or arginine vasopressin (AVP) at the indicated concentrations the following day. Media were changed every day. Cells were harvested six days post treatment. Data represent four experiments performed in triplicate and are plotted as fold (treatment/vehicle)±SEM. Significance was determined using a Student's t-test comparing to vehicle controls (**, p<0.01).

For test [2], the system named is RWPE1 cells. Put plainly: AVP effect on normal prostate epithelial cell proliferation. The class given is cell-based, human. The protocol:
as §1
(§2) The effect of arginine vasopressin on the proliferation of a castration-resistant prostate cancer cell line (i.e., 22Rv1) was evaluated. Briefly, 22RV1 cells were treated with 1 nM, 10 nM or 1 μM arginine vasopressin (AVP) for six days followed by live cell counting.

For test [3], the system named is ERK1/2 phosphorylation. Put plainly: Phospho-ERK1/2 immunoblot, AVP plus/minus Relcovaptan (FIG. 10). The class given is cell-based, human. The settings on record: 22Rv1 or CWR-R1; 1 nM AVP; 25 min. The source says:
FIG. 10. […] Lysates were immunoblotted for phospho-ERK1/2 and total ERK1/2.

The test system of test [4] is 22Rv1 cells. Nature of the test: AVP treatment of 22Rv1 cells, live cell counting (Example 9). The class given is cell-based, human. As to conditions: 1 nM, 10 nM or 1 μM AVP, six days. As for the experimental part: as §2
Test [5] concerns ERK phosphorylation. Nature of the test: Total and phosphoERK after AVP stimulation of 22Rv1 with AVPR1a antagonist pretreatment (FIG. 18). It is filed as cell-based, human. As to conditions: 10 nM AVP, 25 minutes. As for the experimental part: Total and phosphoERK levels were assessed following stimulation of 22Rv1 with 10 nM AVP for 25 minutes and pretreatment with AVPR1a antagonist (or vehicle control).

The test system of test [6] is AVP type V1a and V2 receptors. As to conditions: cited from earlier work.

The structures appear in SMILES notation. “Also recorded” adds a separate entry of the source.

Turning to `NC(=O)CC[C@@H]1NC(=O)[C@H](Cc2ccccc2)NC(=O)[C@H](Cc2ccc(O)cc2)NC(=O)[C@@H](N)CSSC[C@@H](C(=O)N2CCC[C@H]2C(=O)N[C@@H](CCCN=C(N)N)C(=O)NCC(N)=O)NC(=O)[C@H](CC(N)=O)NC1=O` [AVP, arginine vasopressin], the PC cell proliferation entry in test [1] is reported as “increased PC cell proliferation; also recorded: stimulates castration resistant prostate cancer cell proliferation”. Moreover, the “growth of normal RWPE1 cells” value in test [2] (1 nM AVP, six days) is listed as “did not stimulate growth”. Moreover, the RWPE1 cell proliferation entry in test [2] (Example 9, data not shown) is on record as “did not stimulate RWPE1 cell proliferation”. Besides, the “proliferation of RWPE-1” value in test [2] (higher AVP doses) is listed as “Decreased proliferation”. Further, the “ERK 1/2 phosphorylation (activation)” value in test [3] is “activated ERK 1/2; also recorded: stimulates ERK1/2 phosphorylation”. Also, the CRPC proliferation entry in test [4] is given as “stimulated CRPC proliferation”. Moreover, the phosphoERK levels result in test [5] is reported as “increased phosphoERK levels”.
For `Cc1nc2c([nH]1)-c1ccccc1N(C(=O)c1ccc(NC(=O)c3ccccc3-c3ccccc3)cc1)CC2` [Conivaptan], the “AVP receptor blockade / selectivity” value in test [6] was “non-selectively blocks both AVP type V1a and V2 receptors”.
